pIC50: −log10 of the molar value.
Experiments:
Test in all cases: NCI panel growth inhibition, sulforhodamine B
NCI/ADR-RES = type: cell-based, human; conditions: Homo sapiens, Breast cancer, drug for last 48 h of 72 h
From the text: (§1) Comparison of anticancer activities of the 1,3-substituted adamantane derivatives, 1,3-bis(4-aminophenyl)adamantane (1,3-DPANH2), 1,3-bis(4-(4-aminophenoxy)phenyl)adamantane (1,3-DPAONH2), 1,3-bis(4-(4-amino-3-hydroxy)phenyl)adamantane (1,3-DPA/OH/NH2) and 1,3-bis(4-(4-amino-2-trifluoromethylphenoxy)phenyl)adamantane (1,3-DPA/CF3/NH2) as shown in FIG. 1 were synthesized in the present invention. Those compounds were submitted to the National Cancer Institute for anticancer assay in culture against a standard panel of cell lines. […] To further confirm that the different substituents (CF3 and OH) on the phenyl ring of 1,3-DPAONH2 affect the growth inhibition of cancer cells. […] The transformations of 1,3-DPAONH2 to 1,3-DPA/OH/NH2 led to a remarked enhancement of anticancer activity toward all the tested cancer lines. The role of the OH group at the ortho position of the NH2 on growth inhibition is remarkable. In addition, one compound (1,3-DPA/OH/NH2) was confirmed to have an IC50 of <1 μM against one of the cells (BT-549 breast carcinoma). Comparison of anticancer activities of 1,3-substituted diaminophenyladamantane derivatives, the following order of potency against the tested cancer lines was observed: 1,3-DPA/OH/NH2>1,3-DPAONH2>1,3-DPANH2>1,3-DPA/CF3/NH2.

BT-549 = type: cell-based, human; conditions: Homo sapiens, BT-549, BT-549, Breast cancer; drug for last 48 h of 72 h
From the text: as §1

SF-295 = type: cell-based, human; conditions: Homo sapiens, SF-295, SF-295, CNS cancer; drug for last 48 h of 72 h
From the text: as §1

NCI-H23 = type: cell-based; conditions: Homo sapiens; NCI-H23, NSCLC; drug for last 48 h of 72 h
From the text: as §1

DU-145 = type: cell-based; conditions: Homo sapiens; DU-145, Prostate cancer; drug for last 48 h of 72 h
From the text: as §1

MOLT-4 = type: cell-based; conditions: Homo sapiens; MOLT-4, Leukemia; drug for last 48 h of 72 h
From the text: as §1

SN12C = type: cell-based; conditions: Homo sapiens, Renal cancer, drug for last 48 h of 72 h
From the text: as §1

MCF-7 = type: cell-based; conditions: Homo sapiens, MCF7; MCF-7, Breast cancer; drug for last 48 h of 72 h
From the text: as §1

EKVX = type: cell-based; conditions: Homo sapiens, NSCLC, drug for last 48 h of 72 h
From the text: as §1

SK-MEL-5 = type: cell-based; conditions: Homo sapiens; SK-MEL-5, Melanoma; drug for last 48 h of 72 h
From the text: as §1

KM12 = type: cell-based; conditions: Homo sapiens, KM12, KM12, Colon cancer; drug for last 48 h of 72 h
From the text: as §1

HOP-62 = type: cell-based; conditions: Homo sapiens; HOP-62, NSCLC; drug for last 48 h of 72 h
From the text: as §1

A498 = type: cell-based; conditions: Homo sapiens; A498, Renal cancer; drug for last 48 h of 72 h
From the text: as §1

SK-MEL-28 = type: cell-based; conditions: Homo sapiens; SK-MEL-28, Melanoma; drug for last 48 h of 72 h
From the text: as §1

CCRF-CEM = type: cell-based; conditions: Homo sapiens, Leukemia, drug for last 48 h of 72 h
From the text: as §1

UACC-62 = type: cell-based; conditions: Homo sapiens; UACC-62, Melanoma; drug for last 48 h of 72 h
From the text: as §1

PC-3 = type: cell-based; conditions: Homo sapiens; PC-3, Prostate cancer; drug for last 48 h of 72 h
From the text: as §1

SK-MEL-2 = type: cell-based; conditions: Homo sapiens; SK-MEL-2, Melanoma; drug for last 48 h of 72 h
From the text: as §1

SW-620 = type: cell-based; conditions: Homo sapiens; SW-620, Colon cancer; drug for last 48 h of 72 h
From the text: as §1

OVCAR-3 = type: cell-based; conditions: Homo sapiens; OVCAR-3, Ovarian cancer; drug for last 48 h of 72 h
From the text: as §1

HCT-15 = type: cell-based; conditions: Homo sapiens; HCT-15, Colon cancer; drug for last 48 h of 72 h
From the text: as §1

MDA-N = type: cell-based; conditions: Homo sapiens, Breast cancer, drug for last 48 h of 72 h
From the text: as §1

K-562 = type: cell-based; conditions: Homo sapiens, K562; K-562, Leukemia; drug for last 48 h of 72 h
From the text: as §1

786-0 = type: cell-based; conditions: Homo sapiens; 786-0, Renal cancer; drug for last 48 h of 72 h
From the text: as §1

COLO 205 = type: cell-based; conditions: Homo sapiens; COLO 205, Colon cancer; drug for last 48 h of 72 h
From the text: as §1

OVCAR-5 = type: cell-based; conditions: Homo sapiens; OVCAR-5, Ovarian cancer; drug for last 48 h of 72 h
From the text: as §1

MDA-MB-435 = type: cell-based; conditions: Homo sapiens; MDA-MB-435, Breast cancer; drug for last 48 h of 72 h
From the text: as §1

OVCAR-8 = type: cell-based; conditions: Homo sapiens; OVCAR-8, Ovarian cancer; drug for last 48 h of 72 h
From the text: as §1

OVCAR-4 = type: cell-based; conditions: Homo sapiens; OVCAR-4, Ovarian cancer; drug for last 48 h of 72 h
From the text: as §1

SMILES	pIC50 (NCI/ADR-RES)	pIC50 (BT-549)	pIC50 (SF-295)	pIC50 (NCI-H23)	pIC50 (DU-145)	pIC50 (MOLT-4)	pIC50 (SN12C)	pIC50 (MCF-7)	pIC50 (EKVX)	pIC50 (SK-MEL-5)	pIC50 (KM12)	pIC50 (HOP-62)	pIC50 (A498)	pIC50 (SK-MEL-28)	pIC50 (CCRF-CEM)	pIC50 (UACC-62)	pIC50 (PC-3)	pIC50 (SK-MEL-2)	pIC50 (SW-620)	pIC50 (OVCAR-3)	other results
Nc1ccc(Oc2ccc(C3(c4ccc(Oc5ccc(N)c(O)c5)cc4)C4CC5CC(C4)CC3C5)cc2)cc1O [DPA, 2,2-bis(4-(4-amino-3-hydroxyphenoxy)phenyl)adamantane]	5.63	5.69	5.59	5.74	5.69	5.84	5.74	5.71	5.58	5.81	5.69	5.68	5.33	5.77	5.51	5.49	5.80	5.77	5.79	5.81	pIC50 (HCT-15): 5.78; pIC50 (MDA-N): 5.67; pIC50 (K-562): 5.70; pIC50 (786-0): 5.73; pIC50 (COLO 205): 6.32; pIC50 (OVCAR-5): 5.68; pIC50 (MDA-MB-435): 5.64; pIC50 (OVCAR-8): 5.77; pIC50 (OVCAR-4): 5.51
Nc1ccc(Oc2ccc(C34CC5CC(C3)CC(c3ccc(Oc6ccc(N)cc6C(F)(F)F)cc3)(C5)C4)cc2)c(C(F)(F)F)c1 [1,3-DPA/CF3/NH2, 1,3-bis-(4-(4-amino-2-trifluoromethylphenoxy)phenyl)adamantane]	4.66	4.66	4.60	4.75	4.45	4.45	4.51	4.87	4.81	4.66	4.68	4.74	4.74	4.36	4.44	4.66	4.83	4.85	4.44	4.75	pIC50 (HCT-15): 4.50; pIC50 (MDA-N): 4.44; pIC50 (K-562): 4.36; pIC50 (786-0): 4.50; pIC50 (COLO 205): 4.72; pIC50 (OVCAR-5): 4.57; pIC50 (MDA-MB-435): 4.62; pIC50 (OVCAR-8): 4.80; pIC50 (OVCAR-4): 4.44
Nc1ccc(Oc2ccc(C34CC5CC(C3)CC(c3ccc(Oc6ccc(N)cc6)cc3)(C5)C4)cc2)cc1 [1,3-DPAONH2, 1,3-bis(4-(4-aminophenoxy)phenyl)adamantane]	5.07	5.40	5.16	5.16	5.19	5.42	5.24	5.54	4.81	4.86	5.39	4.97	4.74	4.73	5.32	5.02	4.94	4.80	5.19	5.51	pIC50 (HCT-15): 5.30; pIC50 (MDA-N): 5.36; pIC50 (K-562): 5.15; pIC50 (786-0): 5.09; pIC50 (COLO 205): 4.88; pIC50 (OVCAR-5): 4.72; pIC50 (MDA-MB-435): 5.28; pIC50 (OVCAR-8): 5.32; pIC50 (OVCAR-4): 5.16

From patent US7365231B2, “Compound with antitumor activity and preparation method therefor” (National Taiwan University of Science & Technology, priority 2005, dated 2008)
